Values after ≈ are worked out from the molar mass of the structure shown. Active and inactive are the calls of the source. The rule behind the calls is not given here.
How the values were obtained:
[1] = tested on: Salmonella typhi; assay: Antibacterial activity against Salmonella typhi at 10 ug after 24 hrs by disc diffusion assay; type: functional, Salmonella enterica subsp. enterica serovar Typhi; details: Salmonella enterica, read-out: IZ
[2] = tested on: Salmonella typhi; assay: Antibacterial activity against Salmonella typhi at 15 ug after 24 hrs by disc diffusion assay; type: functional, Salmonella enterica subsp. enterica serovar Typhi; details: Salmonella enterica, read-out: IZ
[3] = tested on: Salmonella typhi; assay: Antibacterial activity against Salmonella typhi at 20 ug after 24 hrs by disc diffusion assay; type: functional, Salmonella enterica subsp. enterica serovar Typhi; details: Salmonella enterica, read-out: IZ
[4] = tested on: Salmonella typhi; assay: Antibacterial activity against Salmonella typhi at 25 ug after 24 hrs by disc diffusion assay; type: functional, Salmonella enterica subsp. enterica serovar Typhi; details: Salmonella enterica, read-out: IZ
[5] = tested on: Bacillus subtilis; assay: Antibacterial activity against Bacillus subtilis at 5 ug after 24 hrs by disc diffusion assay; details: read-out: IZ
[6] = tested on: Bacillus subtilis; assay: Antibacterial activity against Bacillus subtilis at 10 ug after 24 hrs by disc diffusion assay; type: functional; details: read-out: IZ
[7] = tested on: Bacillus subtilis; assay: Antibacterial activity against Bacillus subtilis at 15 ug after 24 hrs by disc diffusion assay; type: functional; details: read-out: IZ
[8] = tested on: Bacillus subtilis; assay: Antibacterial activity against Bacillus subtilis at 20 ug after 24 hrs by disc diffusion assay; type: functional; details: read-out: IZ
[9] = tested on: Bacillus subtilis; assay: Antibacterial activity against Bacillus subtilis at 25 ug after 24 hrs by disc diffusion assay; type: functional; details: read-out: IZ
[10] = tested on: Escherichia coli; assay: Inhibition of Escherichia coli DNA gyrase assessed as inhibition of DNA supercoiling activity using pBR322 DNA as substrate at […] after 3 hrs by agarose gel electrophoresis
[11] = tested on: Escherichia coli; assay: Inhibition of Escherichia coli DNA gyrase -mediated DNA relaxation using pBR322 DNA as substrate at […] after 1 hrs by agarose gel electrophoresis
[12] = tested on: Staphylococcus aureus; assay: Antibacterial activity against Staphylococcus aureus after 18 to 20 hrs by broth micro dilution assay; type: functional
[13] = tested on: Escherichia coli; assay: Antibacterial activity against Escherichia coli after 18 to 20 hrs by broth micro dilution assay; type: functional
[14] = tested on: Klebsiella pneumoniae; assay: Antibacterial activity against Klebsiella pneumoniae after 18 to 20 hrs by broth micro dilution assay; type: functional
[15] = tested on: Pseudomonas aeruginosa; assay: Antibacterial activity against Pseudomonas aeruginosa after 18 to 20 hrs by broth micro dilution assay; type: functional
[16] = tested on: Salmonella typhi; assay: Antibacterial activity against Salmonella typhi after 18 to 20 hrs by broth micro dilution assay; type: functional, Salmonella enterica subsp. enterica serovar Typhi; details: Salmonella enterica
[17] = tested on: Bacillus subtilis; assay: Antibacterial activity against Bacillus subtilis after 18 to 20 hrs by broth micro dilution assay; type: functional
[18] = tested on: Staphylococcus aureus; assay: Antibacterial activity against Staphylococcus aureus at 5 ug after 24 hrs by disc diffusion assay; type: functional; details: read-out: IZ
[19] = tested on: Staphylococcus aureus; assay: Antibacterial activity against Staphylococcus aureus at 10 ug after 24 hrs by disc diffusion assay; type: functional; details: read-out: IZ
[20] = tested on: Staphylococcus aureus; assay: Antibacterial activity against Staphylococcus aureus at 15 ug after 24 hrs by disc diffusion assay; type: functional; details: read-out: IZ
[21] = tested on: Staphylococcus aureus; assay: Antibacterial activity against Staphylococcus aureus at 20 ug after 24 hrs by disc diffusion assay; type: functional; details: read-out: IZ
[22] = tested on: Staphylococcus aureus; assay: Antibacterial activity against Staphylococcus aureus at 25 ug after 24 hrs by disc diffusion assay; type: functional; details: read-out: IZ
[23] = tested on: Escherichia coli; assay: Antibacterial activity against Escherichia coli at 10 ug after 24 hrs by disc diffusion assay; type: functional; details: read-out: IZ
[24] = tested on: Escherichia coli; assay: Antibacterial activity against Escherichia coli at 15 ug after 24 hrs by disc diffusion assay; type: functional; details: read-out: IZ
[25] = tested on: Pseudomonas aeruginosa; assay: Antibacterial activity against Pseudomonas aeruginosa at 5 ug after 24 hrs by disc diffusion assay; type: functional; details: read-out: IZ
[26] = tested on: Pseudomonas aeruginosa; assay: Antibacterial activity against Pseudomonas aeruginosa at 10 ug after 24 hrs by disc diffusion assay; type: functional; details: read-out: IZ
[27] = tested on: Pseudomonas aeruginosa; assay: Antibacterial activity against Pseudomonas aeruginosa at 15 ug after 24 hrs by disc diffusion assay; type: functional; details: read-out: IZ
[28] = tested on: Pseudomonas aeruginosa; assay: Antibacterial activity against Pseudomonas aeruginosa at 20 ug after 24 hrs by disc diffusion assay; type: functional; details: read-out: IZ
[29] = tested on: Pseudomonas aeruginosa; assay: Antibacterial activity against Pseudomonas aeruginosa at 25 ug after 24 hrs by disc diffusion assay; type: functional; details: read-out: IZ
[30] = tested on: Klebsiella pneumoniae; assay: Antibacterial activity against Klebsiella pneumoniae at 5 ug after 24 hrs by disc diffusion assay; type: functional; details: read-out: IZ
[31] = tested on: Klebsiella pneumoniae; assay: Antibacterial activity against Klebsiella pneumoniae at 10 ug after 24 hrs by disc diffusion assay; type: functional; details: read-out: IZ
[32] = tested on: Klebsiella pneumoniae; assay: Antibacterial activity against Klebsiella pneumoniae at 15 ug after 24 hrs by disc diffusion assay; type: functional; details: read-out: IZ
[33] = tested on: Klebsiella pneumoniae; assay: Antibacterial activity against Klebsiella pneumoniae at 20 ug after 24 hrs by disc diffusion assay; type: functional; details: read-out: IZ
[34] = tested on: Klebsiella pneumoniae; assay: Antibacterial activity against Klebsiella pneumoniae at 25 ug after 24 hrs by disc diffusion assay; type: functional; details: read-out: IZ
[35] = tested on: Salmonella typhi; assay: Antibacterial activity against Salmonella typhi at 5 ug after 24 hrs by disc diffusion assay; type: functional, Salmonella enterica subsp. enterica serovar Typhi; details: Salmonella enterica, read-out: IZ
[36] = tested on: Escherichia coli; assay: Inhibition of DNA gyrase mRNA expression in Escherichia coli measured up to 24 hrs by RT-PCR; type: functional, organism-based
[37] = tested on: Escherichia coli; assay: Antibacterial activity against Escherichia coli at 5 ug after 24 hrs by disc diffusion assay; type: functional; details: read-out: IZ
[38] = tested on: Escherichia coli; assay: Antibacterial activity against Escherichia coli at 20 ug after 24 hrs by disc diffusion assay; type: functional; details: read-out: IZ
[39] = tested on: Escherichia coli; assay: Antibacterial activity against Escherichia coli at 25 ug after 24 hrs by disc diffusion assay; type: functional; details: read-out: IZ

O=C(O)c1cn(C2CC2)c2cc(N3CCNCC3)c(F)cc2c1=O [CIPROFLOXACIN]
zone of inhibition at 10 µg/disc [1]: 16 mm
zone of inhibition at 15 µg/disc [2]: 18 mm
zone of inhibition at 20 µg/disc [3]: 22 mm
zone of inhibition at 25 µg/disc [4]: 24 mm
zone of inhibition at 5 µg/disc [5]: 6 mm
zone of inhibition at 10 µg/disc [6]: 7 mm
zone of inhibition at 15 µg/disc [7]: 9 mm
zone of inhibition at 20 µg/disc [8]: 10 mm
zone of inhibition at 25 µg/disc [9]: 12 mm
DNA gyrase inhibition (active/inactive) [10]: Active
inhibition [11]: Active
MIC50 [12]: 0.5 µg/mL (≈ 1.51 µM)
MIC90 [12]: 1 µg/mL (≈ 3.02 µM)
MIC90 [13]: 1 µg/mL (≈ 3.02 µM)
MIC50 [14]: 0.5 µg/mL (≈ 1.51 µM)
MIC90 [14]: 1 µg/mL (≈ 3.02 µM)
MIC50 [15]: 0.5 µg/mL (≈ 1.51 µM)
MIC90 [15]: 1 µg/mL (≈ 3.02 µM)
MIC50 [16]: 0.5 µg/mL (≈ 1.51 µM)
MIC90 [16]: 1 µg/mL (≈ 3.02 µM)
MIC50 [17]: 0.5 µg/mL (≈ 1.51 µM)
MIC90 [17]: 1 µg/mL (≈ 3.02 µM)
zone of inhibition at 5 µg/disc [18]: 22 mm
zone of inhibition at 10 µg/disc [19]: 24 mm
zone of inhibition at 15 µg/disc [20]: 26 mm
zone of inhibition at 20 µg/disc [21]: 30 mm
zone of inhibition at 25 µg/disc [22]: 36 mm
zone of inhibition at 10 µg/disc [23]: 16 mm
zone of inhibition at 15 µg/disc [24]: 18 mm
zone of inhibition at 5 µg/disc [25]: 12 mm
zone of inhibition at 10 µg/disc [26]: 14 mm
zone of inhibition at 15 µg/disc [27]: 16 mm
zone of inhibition at 20 µg/disc [28]: 20 mm
zone of inhibition at 25 µg/disc [29]: 23 mm
zone of inhibition at 5 µg/disc [30]: 24 mm
zone of inhibition at 10 µg/disc [31]: 26 mm
zone of inhibition at 15 µg/disc [32]: 30 mm
zone of inhibition at 20 µg/disc [33]: 34 mm
zone of inhibition at 25 µg/disc [34]: 36 mm
zone of inhibition at 5 µg/disc [35]: 14 mm

CCC1[C@@H]2Nc3ccc(Br)cc3C(c3ccccc3)[C@H]2CN1OS(=O)(=O)c1ccc(C)cc1 (some centres undefined)
zone of inhibition at 10 µg/disc [1]: 16 mm
zone of inhibition at 15 µg/disc [2]: 18 mm
zone of inhibition at 20 µg/disc [3]: 22 mm
zone of inhibition at 25 µg/disc [4]: 24 mm
zone of inhibition at 10 µg/disc [6]: 8 mm
zone of inhibition at 15 µg/disc [7]: 9 mm
zone of inhibition at 20 µg/disc [8]: 10 mm
zone of inhibition at 25 µg/disc [9]: 11 mm
DNA gyrase inhibition (active/inactive) [10]: Active
inhibition [11]: Active
inhibition of gyrase mRNA expression (active/not active) [36]: inactive
MIC50 [12]: 0.25 µg/mL (≈ 0.474 µM)
MIC90 [12]: 0.5 µg/mL (≈ 0.948 µM)
MIC50 [13]: 0.25 µg/mL (≈ 0.474 µM)
MIC90 [13]: 0.5 µg/mL (≈ 0.948 µM)
MIC50 [14]: 0.25 µg/mL (≈ 0.474 µM)
MIC90 [14]: 0.5 µg/mL (≈ 0.948 µM)
MIC50 [15]: 0.25 µg/mL (≈ 0.474 µM)
MIC90 [15]: 0.5 µg/mL (≈ 0.948 µM)
MIC50 [16]: 0.25 µg/mL (≈ 0.474 µM)
MIC90 [16]: 0.5 µg/mL (≈ 0.948 µM)
MIC50 [17]: 0.25 µg/mL (≈ 0.474 µM)
MIC90 [17]: 0.5 µg/mL (≈ 0.948 µM)
zone of inhibition at 5 µg/disc [18]: 20 mm
zone of inhibition at 10 µg/disc [19]: 24 mm
zone of inhibition at 15 µg/disc [20]: 26 mm
zone of inhibition at 20 µg/disc [21]: 30 mm
zone of inhibition at 25 µg/disc [22]: 36 mm
zone of inhibition at 5 µg/disc [37]: 12 mm
zone of inhibition at 10 µg/disc [23]: 14 mm
zone of inhibition at 15 µg/disc [24]: 16 mm
zone of inhibition at 20 µg/disc [38]: 22 mm
zone of inhibition at 25 µg/disc [39]: 23 mm
zone of inhibition at 5 µg/disc [25]: 24 mm
zone of inhibition at 10 µg/disc [26]: 26 mm
zone of inhibition at 15 µg/disc [27]: 28 mm
zone of inhibition at 20 µg/disc [28]: 34 mm
zone of inhibition at 25 µg/disc [29]: 36 mm
zone of inhibition at 5 µg/disc [30]: 10 mm
zone of inhibition at 10 µg/disc [31]: 14 mm
zone of inhibition at 15 µg/disc [32]: 16 mm
zone of inhibition at 20 µg/disc [33]: 24 mm
zone of inhibition at 25 µg/disc [34]: 26 mm
zone of inhibition at 5 µg/disc [35]: 10 mm
